Paper PMC10790229 (Journal of medicinal chemistry, 2023)

How the values were obtained:
[1] = in vivo, cited from earlier work
MT-4 cells = assay: Cytotoxicity in uninfected MT-4 cells; type: cell-based
HIV-2 ROD = assay: Anti-HIV-2 activity in MT-4 cells; type: cell-based; settings: HIV-2 ROD; for SI ROD (CC50/EC50): MT-4 cells; for EC50: read-out: EC50 ROD, 50% protection of MT-4 cells against HIV-induced cytotoxicity
HIV-1 IIIB = assay: Anti-HIV-1 activity in MT-4 cells; type: cell-based; settings: MT-4 cells; for SI IIIB (CC50/EC50): HIV-1 IIIB

Compound | oral half-life T1/2 ([1]; po) | subcutaneous half-life T1/2 ([1]; sc) | CC50 (MT-4 cells) | SI ROD (CC50/EC50) (HIV-2 ROD) | EC50 (HIV-2 ROD) | SI IIIB (CC50/EC50) (HIV-1 IIIB) | Ratio IIIB(EC50)/ROD(EC50) (HIV-1 IIIB)
CC(C)(C#Cc1ccc(-c2ccc(Cl)c3c(NS(C)(=O)=O)nn(CC(F)(F)F)c23)c([C@H](Cc2cc(F)cc(F)c2)NC(=O)Cn2nc(C(F)(F)F)c3c2C(F)(F)[C@@H]2C[C@H]32)n1)S(C)(=O)=O [LEN, Lenacapavir] | 240 to 288 h | 8–12 weeks | – | – | – | – | –
O=C(CN1CCN(S(=O)(=O)c2ccc([N+](=O)[O-])cc2)CC1=O)N[C@@H](Cc1ccccc1)c1nc2ccccc2c(=O)n1-c1ccc(S(=O)(=O)N2CCOCC2)cc1 [20a1, (S)-N-(1-(3-(4-(Morpholinosulfonyl)phenyl)-4-oxo-3,4-dihydroquinazolin-2-yl)-2-phenylethyl)-2-(4-((4-nitrophenyl)-sulfonyl)-2-oxopiperazin-1-yl)acetamide] | – | – | > 153000 nM | >416.67 | 370 ± 90 nM | >126.26 | 3.27
(S)-2-(4-((4-Aminophenyl)sulfonyl)-2-oxopiperazin-1-yl)-N-(1-(3-(4-(morpholinosulfonyl)phenyl)-4-oxo-3,4-dihydroquinazolin-2-yl)-2-phenylethyl)acetamide [21a1] | – | – | > 159000 nM | >1562.50 | 100 ± 10 nM | >1041.67 | 1.50
COc1ccc(-n2c([C@H](Cc3cc(F)cc(F)c3)NC(=O)CN3CCN(S(=O)(=O)c4ccc([N+](=O)[O-])cc4)CC3=O)nc3cc(Br)ccc3c2=O)cc1 [11d2, (S)-N-(1-(7-Bromo-3-(4-methoxyphenyl)-4-oxo-3,4-dihydroquinazolin-2-yl)-2-(3,5-difluorophenyl)ethyl)-2-(4-((4-nitrophenyl)sulfonyl)-2-oxopiperazin-1-yl)acetamide] | – | – | > 154000 nM | >260.42 | 590 ± 200 nM | >156.25 | 1.68
COc1ccc(-n2c([C@H](Cc3cc(F)cc(F)c3)NC(=O)CN3CCN(S(=O)(=O)c4ccc(N)cc4)CC3=O)nc3cc(F)ccc3c2=O)cc1 [12b2, (S)-2-(4-((4-Aminophenyl)sulfonyl)-2-oxopiperazin-1-yl)-N-(2-(3,5-difluorophenyl)-1-(7-fluoro-3-(4-methoxyphenyl)-4-oxo-3,4-dihydroquinazolin-2-yl)ethyl)acetamide] | – | – | > 173000 nM | >1488.10 | 120 ± 30 nM | >568.18 | 2.58
